# Reference: ChEMBL document CHEMBL1152560, “Substituted 2-arylbenzothiazoles as kinase inhibitors: hit-to-lead optimization” (Bioorg Med Chem, 2009)
# What was measured:
# [1] = target: Serine/threonine-protein kinase WNK2 (Homo sapiens) (UniProt Q9Y3S1); experiment: Residual activity of WNK2 at 10 uM by microplate scintillation counting
# [2] = target: Ribosomal protein S6 kinase alpha-1 (Homo sapiens) (UniProt Q15418); experiment: Residual activity of RPS6KA1 at 0.1 uM by microplate scintillation counting
# [3] = target: T1, Serine/threonine-protein kinase D1 (Homo sapiens) (UniProt Q15139); experiment: Residual activity of PKCmu at 1 uM by microplate scintillation counting
# T1 sequence (whole entry): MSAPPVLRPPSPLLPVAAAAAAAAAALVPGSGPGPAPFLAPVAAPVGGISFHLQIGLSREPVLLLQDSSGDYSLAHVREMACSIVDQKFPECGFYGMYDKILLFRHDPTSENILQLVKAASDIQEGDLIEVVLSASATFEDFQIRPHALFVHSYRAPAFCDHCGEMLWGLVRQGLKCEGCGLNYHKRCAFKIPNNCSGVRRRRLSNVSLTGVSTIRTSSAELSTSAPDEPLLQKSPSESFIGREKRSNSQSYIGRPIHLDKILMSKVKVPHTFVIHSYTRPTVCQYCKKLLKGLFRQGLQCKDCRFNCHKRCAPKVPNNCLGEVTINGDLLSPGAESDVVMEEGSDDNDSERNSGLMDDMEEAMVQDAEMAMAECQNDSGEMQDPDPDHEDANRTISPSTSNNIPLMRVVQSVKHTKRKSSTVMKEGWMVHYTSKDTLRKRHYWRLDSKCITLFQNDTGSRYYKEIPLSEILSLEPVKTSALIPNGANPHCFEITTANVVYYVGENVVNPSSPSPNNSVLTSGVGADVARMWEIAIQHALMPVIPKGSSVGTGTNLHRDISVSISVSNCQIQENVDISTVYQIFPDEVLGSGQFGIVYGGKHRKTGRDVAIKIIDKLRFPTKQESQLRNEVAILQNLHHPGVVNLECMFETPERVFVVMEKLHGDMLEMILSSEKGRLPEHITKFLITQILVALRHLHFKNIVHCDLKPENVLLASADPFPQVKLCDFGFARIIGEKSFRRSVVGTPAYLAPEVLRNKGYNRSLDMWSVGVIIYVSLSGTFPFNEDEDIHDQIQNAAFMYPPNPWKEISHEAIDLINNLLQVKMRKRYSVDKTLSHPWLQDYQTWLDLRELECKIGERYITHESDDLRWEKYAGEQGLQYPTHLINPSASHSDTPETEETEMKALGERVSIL
# [4] = target: Serine/threonine-protein kinase pim-2 (Homo sapiens) (UniProt Q9P1W9); experiment: Residual activity of PIM2 at 10 uM by microplate scintillation counting
# [5] = target: Cyclin-dependent kinase 5/CDK5 activator 1 (Homo sapiens) (UniProt Q00535+Q15078); experiment: Residual activity of CDK5/p25NCK at 10 uM by microplate scintillation counting; type: protein-complex assay
# [6] = target: Protein kinase C delta type (Homo sapiens) (UniProt Q05655); experiment: Residual activity of PKCdelta at 0.1 uM by microplate scintillation counting
# [7] = Residual activity of S6K at 1 uM by microplate scintillation counting
# [8] = target: Serine/threonine-protein kinase 16 (Homo sapiens) (UniProt O75716); experiment: Residual activity of TSF1 at 1 uM by microplate scintillation counting
# [9] = target: T2, Eukaryotic elongation factor 2 kinase (Homo sapiens) (UniProt O00418); experiment: Residual activity of EEF2K at 10 uM by microplate scintillation counting
# T2 sequence (whole entry): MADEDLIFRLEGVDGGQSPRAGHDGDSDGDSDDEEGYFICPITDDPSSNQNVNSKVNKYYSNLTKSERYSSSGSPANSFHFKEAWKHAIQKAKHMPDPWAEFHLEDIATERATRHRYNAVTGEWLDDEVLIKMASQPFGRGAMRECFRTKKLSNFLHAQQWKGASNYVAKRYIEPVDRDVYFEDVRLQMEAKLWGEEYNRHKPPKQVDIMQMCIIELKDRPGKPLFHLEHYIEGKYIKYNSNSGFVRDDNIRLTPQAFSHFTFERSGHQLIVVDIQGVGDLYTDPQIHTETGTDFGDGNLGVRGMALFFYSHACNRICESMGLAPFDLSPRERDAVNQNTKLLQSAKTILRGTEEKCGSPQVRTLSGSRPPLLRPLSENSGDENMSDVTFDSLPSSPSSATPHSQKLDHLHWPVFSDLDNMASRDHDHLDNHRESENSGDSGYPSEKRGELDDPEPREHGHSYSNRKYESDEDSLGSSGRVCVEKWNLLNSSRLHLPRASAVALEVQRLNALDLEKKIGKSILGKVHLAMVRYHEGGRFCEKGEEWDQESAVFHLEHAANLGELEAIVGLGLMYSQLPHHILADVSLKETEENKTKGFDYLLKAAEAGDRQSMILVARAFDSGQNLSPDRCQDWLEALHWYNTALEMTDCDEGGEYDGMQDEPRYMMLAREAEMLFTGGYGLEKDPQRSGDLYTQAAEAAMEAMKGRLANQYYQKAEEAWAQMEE
# Serine/threonine-protein kinase 16 (Homo sapiens), sequence (O75716 whole entry): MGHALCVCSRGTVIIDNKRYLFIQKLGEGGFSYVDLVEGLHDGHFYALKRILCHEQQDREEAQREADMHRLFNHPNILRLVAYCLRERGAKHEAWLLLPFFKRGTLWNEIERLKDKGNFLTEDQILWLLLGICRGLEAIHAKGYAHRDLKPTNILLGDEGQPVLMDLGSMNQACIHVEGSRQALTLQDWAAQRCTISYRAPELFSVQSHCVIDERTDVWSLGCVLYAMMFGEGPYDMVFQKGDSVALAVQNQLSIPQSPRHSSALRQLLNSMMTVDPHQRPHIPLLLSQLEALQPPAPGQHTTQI
# Serine/threonine-protein kinase WNK2 (Homo sapiens), sequence (Q9Y3S1 whole entry): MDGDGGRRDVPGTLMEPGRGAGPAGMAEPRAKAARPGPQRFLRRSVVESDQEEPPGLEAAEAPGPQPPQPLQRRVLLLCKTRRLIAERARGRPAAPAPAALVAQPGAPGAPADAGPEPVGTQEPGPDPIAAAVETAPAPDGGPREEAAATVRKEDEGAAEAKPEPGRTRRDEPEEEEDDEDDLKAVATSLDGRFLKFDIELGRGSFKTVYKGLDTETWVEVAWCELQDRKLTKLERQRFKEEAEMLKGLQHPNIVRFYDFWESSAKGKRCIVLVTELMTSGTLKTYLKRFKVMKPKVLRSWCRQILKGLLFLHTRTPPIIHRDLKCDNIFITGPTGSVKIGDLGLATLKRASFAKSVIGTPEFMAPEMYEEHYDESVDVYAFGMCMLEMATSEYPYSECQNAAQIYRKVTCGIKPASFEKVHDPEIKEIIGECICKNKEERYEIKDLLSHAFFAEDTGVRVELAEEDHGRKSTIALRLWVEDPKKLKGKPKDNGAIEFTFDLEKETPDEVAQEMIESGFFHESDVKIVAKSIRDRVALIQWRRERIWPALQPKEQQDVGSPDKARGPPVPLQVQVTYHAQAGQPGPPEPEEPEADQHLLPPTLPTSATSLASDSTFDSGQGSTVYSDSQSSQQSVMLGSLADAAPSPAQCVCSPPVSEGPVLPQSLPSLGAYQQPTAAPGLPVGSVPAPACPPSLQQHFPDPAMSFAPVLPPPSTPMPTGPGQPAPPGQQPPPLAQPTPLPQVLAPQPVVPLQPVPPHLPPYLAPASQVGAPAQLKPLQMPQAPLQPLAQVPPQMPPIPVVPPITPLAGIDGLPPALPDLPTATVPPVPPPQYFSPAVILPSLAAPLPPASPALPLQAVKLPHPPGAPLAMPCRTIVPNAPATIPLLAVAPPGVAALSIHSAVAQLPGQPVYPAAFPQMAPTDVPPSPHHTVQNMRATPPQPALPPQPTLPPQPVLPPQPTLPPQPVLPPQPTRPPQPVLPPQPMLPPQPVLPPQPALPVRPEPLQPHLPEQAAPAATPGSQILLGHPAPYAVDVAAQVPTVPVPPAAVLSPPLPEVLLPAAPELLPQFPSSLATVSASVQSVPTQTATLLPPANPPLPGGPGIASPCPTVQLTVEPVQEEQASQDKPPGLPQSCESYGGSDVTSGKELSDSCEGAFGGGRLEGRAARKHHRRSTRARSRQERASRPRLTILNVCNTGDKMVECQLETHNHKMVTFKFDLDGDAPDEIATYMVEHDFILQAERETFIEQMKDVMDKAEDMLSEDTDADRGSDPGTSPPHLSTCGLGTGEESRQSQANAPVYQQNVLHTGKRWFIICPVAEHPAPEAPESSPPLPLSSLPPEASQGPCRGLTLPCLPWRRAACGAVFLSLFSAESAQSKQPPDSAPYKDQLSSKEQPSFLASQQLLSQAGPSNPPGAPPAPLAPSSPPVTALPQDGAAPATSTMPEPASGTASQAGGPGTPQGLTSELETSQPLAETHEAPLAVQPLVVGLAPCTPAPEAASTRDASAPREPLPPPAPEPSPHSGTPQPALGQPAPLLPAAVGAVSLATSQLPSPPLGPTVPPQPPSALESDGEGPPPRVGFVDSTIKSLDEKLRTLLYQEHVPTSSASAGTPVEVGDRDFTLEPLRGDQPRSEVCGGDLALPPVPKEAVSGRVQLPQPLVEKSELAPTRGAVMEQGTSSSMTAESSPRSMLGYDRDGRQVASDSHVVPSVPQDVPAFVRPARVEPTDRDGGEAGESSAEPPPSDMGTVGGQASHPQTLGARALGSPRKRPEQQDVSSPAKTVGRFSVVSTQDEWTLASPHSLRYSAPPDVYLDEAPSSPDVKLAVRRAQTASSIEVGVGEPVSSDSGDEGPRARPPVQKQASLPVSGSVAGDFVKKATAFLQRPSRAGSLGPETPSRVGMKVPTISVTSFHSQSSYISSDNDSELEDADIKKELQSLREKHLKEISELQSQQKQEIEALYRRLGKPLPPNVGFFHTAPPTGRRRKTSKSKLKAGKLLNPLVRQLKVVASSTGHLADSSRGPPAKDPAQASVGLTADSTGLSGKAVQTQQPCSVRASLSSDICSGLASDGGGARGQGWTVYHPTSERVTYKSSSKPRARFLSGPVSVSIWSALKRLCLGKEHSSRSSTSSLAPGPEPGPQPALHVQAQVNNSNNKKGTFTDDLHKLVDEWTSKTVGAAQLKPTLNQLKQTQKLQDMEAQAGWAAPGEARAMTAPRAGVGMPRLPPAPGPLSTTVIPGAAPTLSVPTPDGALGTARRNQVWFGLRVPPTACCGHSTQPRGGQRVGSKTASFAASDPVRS
# Protein kinase C delta type (Homo sapiens), sequence (Q05655 whole entry, looked up): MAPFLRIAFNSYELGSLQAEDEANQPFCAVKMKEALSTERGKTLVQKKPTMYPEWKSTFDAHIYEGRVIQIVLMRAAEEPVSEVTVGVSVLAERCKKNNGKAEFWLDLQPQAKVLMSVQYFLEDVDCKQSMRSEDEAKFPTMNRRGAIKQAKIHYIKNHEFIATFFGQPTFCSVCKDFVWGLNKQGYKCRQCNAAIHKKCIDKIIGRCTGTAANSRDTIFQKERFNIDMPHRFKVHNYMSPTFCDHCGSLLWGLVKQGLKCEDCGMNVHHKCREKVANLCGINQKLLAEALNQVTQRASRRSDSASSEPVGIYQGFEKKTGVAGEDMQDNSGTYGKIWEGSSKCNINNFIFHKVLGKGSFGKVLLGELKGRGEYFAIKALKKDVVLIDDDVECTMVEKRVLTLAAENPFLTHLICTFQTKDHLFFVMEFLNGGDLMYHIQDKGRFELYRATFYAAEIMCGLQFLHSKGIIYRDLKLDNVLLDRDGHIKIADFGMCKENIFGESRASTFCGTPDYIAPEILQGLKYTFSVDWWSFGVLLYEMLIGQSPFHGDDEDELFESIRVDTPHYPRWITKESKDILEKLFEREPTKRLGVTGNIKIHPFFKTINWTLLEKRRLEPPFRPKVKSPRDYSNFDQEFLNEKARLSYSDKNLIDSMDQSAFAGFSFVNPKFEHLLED
# Ribosomal protein S6 kinase alpha-1 (Homo sapiens), sequence (Q15418 whole entry): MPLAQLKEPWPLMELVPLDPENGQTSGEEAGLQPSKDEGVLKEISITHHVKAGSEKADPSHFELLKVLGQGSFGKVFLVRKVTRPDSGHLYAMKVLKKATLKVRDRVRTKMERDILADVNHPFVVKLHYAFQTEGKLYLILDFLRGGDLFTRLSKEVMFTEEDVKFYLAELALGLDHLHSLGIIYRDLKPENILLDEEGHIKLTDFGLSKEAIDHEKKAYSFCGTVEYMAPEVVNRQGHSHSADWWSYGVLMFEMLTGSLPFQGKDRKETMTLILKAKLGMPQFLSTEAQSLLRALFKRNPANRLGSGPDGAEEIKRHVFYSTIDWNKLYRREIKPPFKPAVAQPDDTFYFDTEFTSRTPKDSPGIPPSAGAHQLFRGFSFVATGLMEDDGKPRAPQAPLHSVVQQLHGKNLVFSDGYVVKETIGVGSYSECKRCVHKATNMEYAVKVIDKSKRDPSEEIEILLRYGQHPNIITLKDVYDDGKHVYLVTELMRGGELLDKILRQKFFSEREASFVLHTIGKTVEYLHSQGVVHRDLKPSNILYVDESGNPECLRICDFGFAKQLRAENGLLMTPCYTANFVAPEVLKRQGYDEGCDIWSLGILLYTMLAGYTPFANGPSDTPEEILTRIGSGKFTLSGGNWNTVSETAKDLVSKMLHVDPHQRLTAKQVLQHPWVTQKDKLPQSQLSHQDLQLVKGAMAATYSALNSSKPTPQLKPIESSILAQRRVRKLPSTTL
# Cyclin-dependent kinase 5/CDK5 activator 1 (Homo sapiens), sequence (Q00535 whole entry): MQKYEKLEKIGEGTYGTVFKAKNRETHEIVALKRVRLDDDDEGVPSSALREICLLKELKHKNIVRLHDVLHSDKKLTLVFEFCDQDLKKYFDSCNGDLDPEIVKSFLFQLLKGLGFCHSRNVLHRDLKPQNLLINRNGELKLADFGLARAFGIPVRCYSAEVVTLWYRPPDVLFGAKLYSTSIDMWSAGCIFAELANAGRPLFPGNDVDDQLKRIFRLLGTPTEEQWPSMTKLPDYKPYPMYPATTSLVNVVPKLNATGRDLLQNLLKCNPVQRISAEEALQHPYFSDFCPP
# Cyclin-dependent kinase 5/CDK5 activator 1 (Homo sapiens), sequence (Q15078 99-307 partner limits assumed): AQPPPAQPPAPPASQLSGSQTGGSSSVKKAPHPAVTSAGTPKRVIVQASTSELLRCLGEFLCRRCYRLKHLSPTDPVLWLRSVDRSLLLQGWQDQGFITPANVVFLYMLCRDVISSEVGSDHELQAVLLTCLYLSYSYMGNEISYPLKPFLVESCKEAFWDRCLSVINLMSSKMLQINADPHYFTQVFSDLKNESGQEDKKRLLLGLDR
# Serine/threonine-protein kinase pim-2 (Homo sapiens), sequence (Q9P1W9 whole entry, looked up): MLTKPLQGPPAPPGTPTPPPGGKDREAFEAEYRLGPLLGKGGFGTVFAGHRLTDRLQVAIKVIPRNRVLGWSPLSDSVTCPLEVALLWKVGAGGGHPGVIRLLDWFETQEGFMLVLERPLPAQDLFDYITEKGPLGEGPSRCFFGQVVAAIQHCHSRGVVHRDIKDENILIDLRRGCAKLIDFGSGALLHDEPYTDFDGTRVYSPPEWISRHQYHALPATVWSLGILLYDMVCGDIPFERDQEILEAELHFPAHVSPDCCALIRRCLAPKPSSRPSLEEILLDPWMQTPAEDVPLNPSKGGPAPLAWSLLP
residual activity [1],residual activity [2],residual activity [3],residual activity [4],residual activity [5],residual activity [6],residual activity [7],residual activity [8],residual activity [9],SMILES
6%,79%,100%,113%,117%,88%,75%,87%,104%,COc1cc2c(Oc3ccc(-c4nc5ccccc5s4)cc3)ncnc2cc1OCCCN1CCCC1
12%,81%,89%,73%,112%,93%,69%,90%,91%,COc1cc2c(Oc3ccc(-c4nc5ccccc5s4)cc3)ncnc2cc1OCCCN1CCN(C)CC1
27%,86%,89%,85%,116%,95%,95%,96%,120%,COc1cc2c(Oc3ccc(-c4nc5ccccc5s4)cc3F)ncnc2cc1OCCCN1CCN(C)CC1
